Reference: publication PMC8116589, “Distinguishing Signal From Noise in Immunopeptidome Studies of Limiting-Abundance Biological Samples: Peptides Presented by I-A^b in C57BL/6 Mouse Thymus” (Frontiers in Immunology, 2021)
Where no end group is shown, it is not given here. [ ]: non-standard residue; d: D form.

Key:
I-A^b = molecular target: T1, I-A^b (Mus musculus, UniProt P14434+P14483); assay: biochemical
T1 sequence (P14434 24-218 limits assumed): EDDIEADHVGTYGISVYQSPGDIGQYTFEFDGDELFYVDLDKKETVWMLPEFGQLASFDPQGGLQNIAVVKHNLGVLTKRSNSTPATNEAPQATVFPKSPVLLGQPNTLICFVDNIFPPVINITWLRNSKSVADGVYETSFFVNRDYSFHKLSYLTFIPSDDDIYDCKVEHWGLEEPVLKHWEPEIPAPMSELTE
T1 sequence (P14483 28-226 limits assumed): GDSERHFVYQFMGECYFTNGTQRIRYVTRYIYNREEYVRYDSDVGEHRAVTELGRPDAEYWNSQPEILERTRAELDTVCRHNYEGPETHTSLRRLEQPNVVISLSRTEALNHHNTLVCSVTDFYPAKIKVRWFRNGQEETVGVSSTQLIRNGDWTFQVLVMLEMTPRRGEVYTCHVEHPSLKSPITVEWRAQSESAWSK
Description: A fluorescence polarization (FP) assay was used to measure the IC50 of using N-terminally-acetylated CLIP peptide labeled with Alexa Fluor 488 tetrafluorophenyl ester (Invitrogen, Carlsbad, CA) via the primary amine at K3 as probe peptide as previously described ([34]). The binding reactions were carried in buffer conditions of 100 mM sodium citrate, 50 mM sodium chloride, 0.1% octyl β-D-glucopyranoside, 5 mM ethylenediaminetetraacetic acid, 0.1% sodium azide, 0.2 mM iodoacetic acid, 1 mM dithiothreitol). […] Thrombin is added during all the reactions at a concentration of 1U/ug and inactivated after 3hrs of reaction using 0.1mM phenylmethanesulfonyl fluoride. […] For calculating IC50 values, 100 nM I-A^b-3R was incubated with 25 nM Alexa488-labeled CLIP probe peptide, in combination with a serial dilution of test peptides, beginning at 100 µM followed by 5-fold dilutions in presence of 0.5µM HLA-DM. The reaction mixture was incubated at 37°C. The capacity of each test peptide to compete for binding of probe peptide was measured by FP after 72 h at 37°C. The assay was read using a Victor X5 Multilabel plate reader (PerkinElmer, Shelton, CT). FP values were converted to fraction bound by calculating [(FP_sample - FP_free)/(FP_no_comp - FP_free)], where FP_sample represents the FP value in the presence of test peptide; FP_free represents the value for free Alexa488-conjugated CLIP peptide; and FP_no_comp represents values in the absence of competitor peptide. We plotted fraction bound versus concentration of test peptide and fit the curve to the equation y = 1/(1 +[pep]/IC50), where [pep] is the concentration of test peptide, y is the fraction of probe peptide bound at that concentration of test peptide, and IC50 is the 50% inhibitory concentration of the test peptide.

[1] = molecular target: soluble I-A^b-3R, mouse MHC-II protein (recombinant I-A^b) (mouse); assay: fluorescence polarisation; competition: 100 nM I-A^b-3R (3R cut off by thrombin, 1 U/ug), 25 nM Alexa488-labeled CLIP probe peptide, test peptide from 100 uM in 5-fold dilutions, 0.5 uM HLA-DM, read after 72 h at 37 C; 100 mM sodium citrate, 50 mM NaCl, 0.1% octyl glucoside, 5 mM EDTA, 1 mM DTT; three independent experiments, mean and SD

AAYLWVGAGASEAEKT
IC50 (I-A^b): 276 nM

AGKLQDQGPDVLLAKVS
IC50 (I-A^b): 378 nM

AGTGVDNVDLEAATR
IC50 (I-A^b): 57500 nM

AMLQVLGPKPALPEG
IC50 (I-A^b): 1170 nM

APGHYTYSSPHSGSIH
IC50 (I-A^b): 1580 nM

APTSALGPKASPAPS
IC50 (I-A^b): 2300 nM

AQRAGYKAAIVHNVDS
IC50 (I-A^b): 2420 nM

ARYIYGKPVQGVAYTR
IC50 (I-A^b): 153 nM

ATVSWRAPTAQVESFR
IC50 (I-A^b): 407 nM

AVLLPKKSSATVGPKAPAVGK
IC50 (I-A^b): 13600 nM

DGELTYENVQVSPVPGGPP
IC50 (I-A^b): 1360 nM

EKPVPAAPVPSPVAPAP
IC50 (I-A^b): 1140 nM

FPKPPSYNVATTLPSYDE
IC50 (I-A^b): 231 nM

GALLLNAPVVSITQGR
IC50 (I-A^b): 1660 nM

GGSTDYNAAFISRLS
IC50 (I-A^b): 4960 nM

GIDPYDQPNAIYIER
IC50 (I-A^b): 167 nM

GIVNLKSPKTTSATKI
IC50 (I-A^b): 12800 nM

GKYTYGKPVPGHVKI
IC50 (I-A^b): 399 nM

GPGSREAASPVAITVQE
IC50 (I-A^b): 467 nM

GPPPYHESLAGASQPP
IC50 (I-A^b): 1500 nM

GRKFVYAGSNSGVVQ
IC50 (I-A^b): 1480 nM

GTTGQLFFPEVNKNHR
IC50 (I-A^b): 2640 nM

HIADLAGNPEVILPVPA
IC50 (I-A^b): 13900 nM

HLNTYDGSHTLRVSQS
IC50 (I-A^b): 1360 nM

HNYEGPETHTSLRRL
IC50 (I-A^b): 797 nM

IRRYGVSQPDAVAAWK
IC50 (I-A^b): 250 nM

ISKQEYDESGPSIVHR
IC50 (I-A^b): 15200 nM

ITPSYVAFTPEGERL
IC50 (I-A^b): 1890 nM

IYEAYRQGQANLEAL [IYEAYRQGQANLEAL]
IC50 (I-A^b): 1370 nM

KDITTVNFPPALASGGG
IC50 (I-A^b): 970 nM

KPSIFHDAKSEIIKGHA
IC50 (I-A^b): 4960 nM

KPTVTVVSPLPNDSINPQP
IC50 (I-A^b): 2250 nM

KWKALYTDPKSSETA
IC50 (I-A^b): 3450 nM

LLPKYSFAKPSIVSDK
IC50 (I-A^b): 179 nM

LNLPTGIPIVYEL
IC50 (I-A^b): 54400 nM

LPGELAKHAVSEGTKA
IC50 (I-A^b): 32000 nM

LPQEKYVTSAPMPEPG
IC50 (I-A^b): 562 nM

LSSGFSLEDPQTHSNRIY
IC50 (I-A^b): 13300 nM

LVRYTQKAPQVSTPTLV
IC50 (I-A^b): 765 nM

NDWTVDHPQTLFAWEG
IC50 (I-A^b): 445 nM

NVLRIINEPTAAAIA
IC50 (I-A^b): 337 nM

PGQGTTGQLFFPEVNKN
IC50 (I-A^b): 2900 nM

PHPYPALTPEQKKELSDIAHRIVAPGKG
IC50 (I-A^b): 10900 nM

PSRYITPDQLADLYK
IC50 (I-A^b): 2910 nM

QVLSWSSPVGSRTLA
IC50 (I-A^b): 152 nM

RVLIPYQGPSSDYVVVK
IC50 (I-A^b): 275 nM

RVTIAQGGVLPNIQ
IC50 (I-A^b): 26000 nM

SDLHAFSGSAAWDDS
IC50 (I-A^b): 1090 nM

SDLHAFSGSAAWDDSAG
IC50 (I-A^b): 1920 nM

SLRRLEQPNVVISLSR
IC50 (I-A^b): 93.8 nM

TNPIITPVAQENQ
IC50 (I-A^b): 1740 nM

VEEDAESEDEDEEDVKLLGMSGK
IC50 (I-A^b): 111000 nM

VGTARYMAPEVLESR
IC50 (I-A^b): 197 nM

VGTARYMAPEVLESRM
IC50 (I-A^b): 306 nM

YSMGMHTYQVG
IC50 (I-A^b): 74100 nM

YVTQFHPPHIEIQ
IC50 (I-A^b): 1070 nM

HIADLAGNPEVILPVPA
IC50 [1]: 13900 nM

GIVNLKSPKTTSATKI [… (Tissue alpha-L-fucosidase peptide)]
IC50 [1]: 12800 nM

ITPSYVAFTPEGERL [… (78 kDa glucose-regulated protein peptide)]
IC50 [1]: 1890 nM

GPGSREAASPVAITVQE [… (Fc receptor-like A peptide)]
IC50 [1]: 466 nM

GGSTDYNAAFISRLS [… (Protein Ighv2-2 peptide)]
IC50 [1]: 4960 nM

KPTVTVVSPLPNDSINPQP [… (Protein EVI2B peptide)]
IC50 [1]: 2250 nM

GKYTYGKPVPGHVKI [… (Murinoglobulin-1 peptide)]
IC50 [1]: 399 nM

SDLHAFSGSAAWDDSAG
IC50 [1]: 1920 nM

PSRYITPDQLADLYK
IC50 [1]: 2910 nM

KDITTVNFPPALASGGG [… (Protein Igha peptide)]
IC50 [1]: 970 nM

FPKPPSYNVATTLPSYDE [… (NEDD4 family-interacting protein 1 peptide)]
IC50 [1]: 231 nM

ATVSWRAPTAQVESFR [… (Tenascin peptide)]
IC50 [1]: 407 nM

VGTARYMAPEVLESR
IC50 [1]: 197 nM

HNYEGPETHTSLRRL
IC50 [1]: 797 nM

YVTQFHPPHIEIQ [… (Beta-2-microglobulin peptide)]
IC50 [1]: 1070 nM

ARYIYGKPVQGVAYTR [… (Complement C4-B peptide)]
IC50 [1]: 153 nM

APGHYTYSSPHSGSIH [… (Prostaglandin-H2 D-isomerase isoform 2 peptide)]
IC50 [1]: 1580 nM

AAYLWVGAGASEAEKT
IC50 [1]: 276 nM

PGQGTTGQLFFPEVNKN
IC50 [1]: 2900 nM

SLRRLEQPNVVISLSR
IC50 [1]: 93.8 nM

TNPIITPVAQENQ [… (Apolipoprotein E peptide)]
IC50 [1]: 1740 nM

AMLQVLGPKPALPEG
IC50 [1]: 1180 nM

APTSALGPKASPAPS [… (CCR4-NOT transcription complex subunit 3 peptide)]
IC50 [1]: 2300 nM

AVLLPKKSSATVGPKAPAVGK [… (Histone H2AX peptide)]
IC50 [1]: 13600 nM

LLPKYSFAKPSIVSDK [… (Complement receptor type 2 peptide)]
IC50 [1]: 179 nM

LPQEKYVTSAPMPEPG [… (Ig mu chain C region peptide)]
IC50 [1]: 562 nM

DGELTYENVQVSPVPGGPP [… (B-cell differentiation antigen CD72 peptide)]
IC50 [1]: 1360 nM

GPPPYHESLAGASQPP [… (Protein shisa-5 isoform 2 peptide)]
IC50 [1]: 1500 nM

HLNTYDGSHTLRVSQS [… (T-lymphocyte surface antigen Ly-9 peptide)]
IC50 [1]: 1360 nM

VEEDAESEDEDEEDVKLLGMSGK [… (Nucleophosmin peptide)]
IC50 [1]: 111000 nM

EKPVPAAPVPSPVAPAP [… (Hematological and neurological expressed 1 protein peptide)]
IC50 [1]: 1140 nM

KWKALYTDPKSSETA [… (Retinoid-inducible serine carboxypeptidase peptide)]
IC50 [1]: 3450 nM

GTTGQLFFPEVNKNHR
IC50 [1]: 2640 nM

AGKLQDQGPDVLLAKVS [… (Inter alpha-trypsin inhibitor, heavy chain 4 peptide)]
IC50 [1]: 378 nM

GRKFVYAGSNSGVVQ [… (Semaphorin-4D peptide)]
IC50 [1]: 1480 nM

LVRYTQKAPQVSTPTLV [… (Serum albumin peptide)]
IC50 [1]: 765 nM

LSSGFSLEDPQTHSNRIY [… (Heat shock protein HSP 90-beta peptide)]
IC50 [1]: 13300 nM

GIDPYDQPNAIYIER
IC50 [1]: 167 nM

GALLLNAPVVSITQGR [… (L-amino-acid oxidase isoform 2 peptide)]
IC50 [1]: 1660 nM

IYEAYRQGQANLEAL [… (Marginal zone B- and B1-cell-specific protein peptide)]
IC50 [1]: 1370 nM

SDLHAFSGSAAWDDS
IC50 [1]: 1090 nM

QQLAFKQPSSAYAAFN [q… (Complement C3 peptide)]
IC50 [1]: 170 nM

LEISYTGSRPASN[code m]V (not fully specified; printed as LEISYTGSRPASNmV (Murinoglobulin-1 peptide)) […mV (Murinoglobulin-1 peptide)]
IC50 [1]: 349 nM

KPSIFHDAKSEIIKGHA [… (Platelet endothelial cell adhesion molecule isoform 4 peptide)]
IC50 [1]: 4960 nM

VGTARYMAPEVLESRM
IC50 [1]: 306 nM

RVLIPYQGPSSDYVVVK
IC50 [1]: 275 nM
